Results as given in ChEMBL document CHEMBL3351686, “Facile and diastereoselective synthesis of 3,2'-spiropyrrolidine-oxindoles derivatives, their molecular docking and antiproliferative activities” (2015).
Values after ≈ are worked out from the molar mass of the structure shown.

What was measured:
Salmonella typhimurium [1] = assay: Antibacterial activity against Salmonella typhimurium MTCC 1251 assessed as zone of inhibition at 1 mg/disc after 24 hrs by disc diffusion method; format: functional, Salmonella enterica subsp. enterica serovar Typhimurium
Klebsiella pneumoniae [2] = assay: Antibacterial activity against Klebsiella pneumoniae MTCC 109 assessed as zone of inhibition at 1 mg/disc after 24 hrs by disc diffusion method; format: functional
Proteus vulgaris [3] = assay: Antibacterial activity against Proteus vulgaris MTCC 1771 assessed as zone of inhibition at 1 mg/disc after 24 hrs by disc diffusion method; format: functional
Shigella flexneri [4] = assay: Antibacterial activity against Shigella flexneri MTCC 1457 assessed as zone of inhibition at 1 mg/disc after 24 hrs by disc diffusion method; format: functional
Micrococcus luteus [5] = assay: Antibacterial activity against Micrococcus luteus MTCC 106 assessed as zone of inhibition at 1 mg/disc after 24 hrs by disc diffusion method; format: functional
Klebsiella aerogenes [6] = assay: Antibacterial activity against Enterobacter aerogenes MTCC 111 assessed as zone of inhibition at 1 mg/disc after 24 hrs by disc diffusion method; format: functional
[7] = test system: Staphylococcus epidermidis; assay: Antibacterial activity against Staphylococcus epidermidis MTCC 3615 assessed as zone of inhibition at 1 mg/disc after 24 hrs by disc diffusion method; format: functional
Staphylococcus aureus [8] = assay: Antibacterial activity against Staphylococcus aureus MTCC 96 assessed as zone of inhibition at 1 mg/disc after 24 hrs by disc diffusion method; format: functional
Staphylococcus aureus [9] = assay: Antibacterial activity against methicillin-resistant Staphylococcus aureus assessed as zone of inhibition at 1 mg/disc after 24 hrs by disc diffusion method; format: functional
Candida albicans [10] = assay: Antifungal activity against Candida albicans MTCC 227 assessed as zone of inhibition at 1 mg/disc after 48 hrs by disc diffusion method; format: functional
Malassezia pachydermatis [11] = assay: Antifungal activity against Malassezia pachydermatis assessed as zone of inhibition at 1 mg/disc after 48 hrs by disc diffusion method; format: functional
Salmonella typhimurium [12] = assay: Antibacterial activity against Salmonella typhimurium MTCC 1251 assessed as inhibition of visual growth after 24 hrs; format: functional, Salmonella enterica subsp. enterica serovar Typhimurium; settings: Salmonella enterica, MTCC 1251, 24 h
Klebsiella pneumoniae [13] = assay: Antibacterial activity against Klebsiella pneumoniae MTCC 109 assessed as inhibition of visual growth after 24 hrs; format: functional; settings: MTCC 109, 24 h
Proteus vulgaris [14] = assay: Antibacterial activity against Proteus vulgaris MTCC 1771 assessed as inhibition of visual growth after 24 hrs; format: functional; settings: MTCC 1771, 24 h
Micrococcus luteus [15] = assay: Antibacterial activity against Micrococcus luteus MTCC 106 assessed as inhibition of visual growth after 24 hrs; format: functional; settings: MTCC 106, 24 h
Klebsiella aerogenes [16] = assay: Antibacterial activity against Enterobacter aerogenes MTCC 111 assessed as inhibition of visual growth after 24 hrs; format: functional; settings: MTCC 111, 24 h
[17] = test system: Staphylococcus epidermidis; assay: Antibacterial activity against Staphylococcus epidermidis MTCC 3615 assessed as inhibition of visual growth after 24 hrs; format: functional; settings: MTCC 3615, 24 h
Staphylococcus aureus [18] = assay: Antibacterial activity against Staphylococcus aureus MTCC 96 assessed as inhibition of visual growth after 24 hrs; format: functional; settings: MTCC 96, 24 h
Staphylococcus aureus [19] = assay: Antibacterial activity against methicillin-resistant Staphylococcus aureus assessed as inhibition of visual growth after 24 hrs; format: functional
Candida albicans [20] = assay: Antifungal activity against Candida albicans MTCC 227 assessed as inhibition of visual growth after 48 to 72 hrs; format: functional
Malassezia pachydermatis [21] = assay: Antifungal activity against Malassezia pachydermatis assessed as inhibition of visual growth after 48 to 72 hrs; format: functional
Shigella flexneri [22] = assay: Antibacterial activity against Shigella flexneri MTCC 1457 assessed as inhibition of visual growth after 24 hrs; format: functional; settings: MTCC 1457, 24 h

Structure (SMILES) | inhibition zone (IZ) (Salmonella typhimurium [1]) [mm] | inhibition zone (IZ) (Klebsiella pneumoniae [2]) [mm] | inhibition zone (IZ) (Proteus vulgaris [3]) [mm] | inhibition zone (IZ) (Shigella flexneri [4]) [mm] | inhibition zone (IZ) (Micrococcus luteus [5]) [mm] | inhibition zone (IZ) (Klebsiella aerogenes [6]) [mm] | inhibition zone (IZ) [7] [mm] | inhibition zone (IZ) (Staphylococcus aureus [8]) [mm] | inhibition zone (IZ) (Staphylococcus aureus [9]) [mm] | MIC (Salmonella typhimurium [12]) [µg/mL] | MIC (Klebsiella pneumoniae [13]) [µg/mL] | MIC (Proteus vulgaris [14]) [µg/mL] | MIC (Micrococcus luteus [15]) [µg/mL] | MIC (Klebsiella aerogenes [16]) [µg/mL] | MIC [17] [µg/mL] | MIC (Staphylococcus aureus [18]) [µg/mL] | MIC (Staphylococcus aureus [19]) [µg/mL] | MIC (Candida albicans [20]) [µg/mL] | MIC (Malassezia pachydermatis [21]) [µg/mL] | MIC (Shigella flexneri [22]) [µg/mL] | further results
CN1C[C@](C#N)(C(=O)c2c[nH]c3ccccc23)[C@@H](c2cn(-c3ccccc3)nc2-c2ccccc2)[C@@]12C(=O)Nc1ccc([N+](=O)[O-])cc12 | 12 | 17 | 14 | 20 | 18 | 15 | 15 | 19 | 18 | 500 (≈ 789 µM) | 500 (≈ 789 µM) | 250 (≈ 395 µM) | 250 (≈ 395 µM) | 500 (≈ 789 µM) | 500 (≈ 789 µM) | 250 (≈ 395 µM) | 125 (≈ 197 µM) | 250 (≈ 395 µM) | 500 (≈ 789 µM) |  | inhibition zone (IZ) (Candida albicans [10]): 13 mm; inhibition zone (IZ) (Malassezia pachydermatis [11]): 8 mm
C=CCN1C(=O)[C@]2(c3ccccc31)[C@H](c1cn(-c3ccccc3)nc1-c1ccccc1)[C@@](C#N)(C(=O)c1c[nH]c3ccccc13)C1CCCN12 (some centres not stated) | 10 | 9 | 10 |  |  |  |  |  |  | 500 (≈ 764 µM) | 500 (≈ 764 µM) | 250 (≈ 382 µM) | 250 (≈ 382 µM) | 250 (≈ 382 µM) | 125 (≈ 191 µM) | 125 (≈ 191 µM) | 250 (≈ 382 µM) | 250 (≈ 382 µM) | 500 (≈ 764 µM) | 250 (≈ 382 µM) | 
CCCCN1C(=O)[C@]2(c3ccccc31)[C@H](c1cn(-c3ccccc3)nc1-c1ccccc1)[C@@](C#N)(C(=O)c1c[nH]c3ccccc13)C1CCCN12 (some centres not stated) | 8 | 9 | 10 | 10 | 9 | 11 | 10 | 11 | 12 | 125 (≈ 186 µM) | 250 (≈ 373 µM) | 250 (≈ 373 µM) | 500 (≈ 745 µM) | 500 (≈ 745 µM) | 62.5 (≈ 93.2 µM) | 125 (≈ 186 µM) | 500 (≈ 745 µM) | 500 (≈ 745 µM) |  |  | 
CN1C(=O)[C@]2(c3ccccc31)[C@H](c1cn(-c3ccccc3)nc1-c1ccccc1)[C@@](C#N)(C(=O)c1c[nH]c3ccccc13)C1CCCN12 (some centres not stated) | 13 | 11 | 12 | 9 | 8 | 10 | 12 | 9 | 10 | 500 (≈ 795 µM) | 500 (≈ 795 µM) | 250 (≈ 398 µM) | 500 (≈ 795 µM) | 250 (≈ 398 µM) | 250 (≈ 398 µM) | 250 (≈ 398 µM) | 125 (≈ 199 µM) |  |  | 250 (≈ 398 µM) | 
C#CCN1C(=O)[C@]2(c3ccccc31)[C@H](c1cn(-c3ccccc3)nc1-c1ccccc1)[C@@](C#N)(C(=O)c1c[nH]c3ccccc13)C1CCCN12 (some centres not stated) | 10 | 12 | 13 | 8 | 10 | 12 | 11 | 10 | 8 | 125 (≈ 191 µM) | 250 (≈ 383 µM) | 250 (≈ 383 µM) | 500 (≈ 766 µM) | 250 (≈ 383 µM) | 125 (≈ 191 µM) | 500 (≈ 766 µM) | 250 (≈ 383 µM) |  |  | 500 (≈ 766 µM) | inhibition zone (IZ) (Candida albicans [10]): 10 mm; inhibition zone (IZ) (Malassezia pachydermatis [11]): 9 mm
N#C[C@]1(C(=O)c2c[nH]c3ccccc23)C2CCCN2[C@]2(C(=O)Nc3ccc([N+](=O)[O-])cc32)[C@@H]1c1cn(-c2ccccc2)nc1-c1ccccc1 (some centres not stated) | 9 | 9 | 9 | 8 | 8 | 10 | 12 | 11 | 9 | 250 (≈ 379 µM) | 250 (≈ 379 µM) | 125 (≈ 189 µM) | 500 (≈ 758 µM) | 250 (≈ 379 µM) | 250 (≈ 379 µM) | 125 (≈ 189 µM) | 500 (≈ 758 µM) | 250 (≈ 379 µM) | 500 (≈ 758 µM) | 500 (≈ 758 µM) | inhibition zone (IZ) (Candida albicans [10]): 11 mm
C=CCN1C(=O)[C@]2(c3ccccc31)[C@H](c1cn(-c3ccccc3)nc1-c1ccccc1)[C@@](C#N)(C(=O)c1c[nH]c3ccccc13)C1CSCN12 (some centres not stated) | 10 | 9 | 10 | 9 | 11 | 9 | 11 | 12 | 9 | 250 (≈ 372 µM) | 500 (≈ 743 µM) | 500 (≈ 743 µM) | 500 (≈ 743 µM) | 250 (≈ 372 µM) | 125 (≈ 186 µM) | 250 (≈ 372 µM) | 500 (≈ 743 µM) | 250 (≈ 372 µM) |  | 500 (≈ 743 µM) | inhibition zone (IZ) (Candida albicans [10]): 12 mm; inhibition zone (IZ) (Malassezia pachydermatis [11]): 10 mm
N#C[C@]1(C(=O)c2c[nH]c3ccccc23)C2CSCN2[C@]2(C(=O)N(Cc3ccccc3)c3ccccc32)[C@@H]1c1cn(-c2ccccc2)nc1-c1ccccc1 (some centres not stated) |  |  | 10 |  |  |  |  |  |  | 250 (≈ 346 µM) | 250 (≈ 346 µM) | 500 (≈ 692 µM) | 250 (≈ 346 µM) | 250 (≈ 346 µM) | 125 (≈ 173 µM) | 62.5 (≈ 86.5 µM) | 500 (≈ 692 µM) | 500 (≈ 692 µM) | 500 (≈ 692 µM) | 500 (≈ 692 µM) | 
CCCCN1C(=O)[C@]2(c3ccccc31)[C@H](c1cn(-c3ccccc3)nc1-c1ccccc1)[C@@](C#N)(C(=O)c1c[nH]c3ccccc13)C1CSCN12 (some centres not stated) | 9 | 9 |  |  | 10 | 9 | 10 | 8 |  | 250 (≈ 363 µM) | 500 (≈ 726 µM) | 500 (≈ 726 µM) | 250 (≈ 363 µM) | 500 (≈ 726 µM) | 250 (≈ 363 µM) | 250 (≈ 363 µM) | 500 (≈ 726 µM) | 125 (≈ 181 µM) | 125 (≈ 181 µM) | 500 (≈ 726 µM) | 
